Measurements: patent US12662491B2 (Redona Therapeutics, Inc., priority 2020, dated 2026)

The molecules below were run against T1, Zcchc11 enzyme (Homo sapiens, UniProt Q5TAX3) (assay: TUTase assay (Zcchc11 assay, Lin28a-dependent polyuridylation of pre-let-7)). Settings: Lin28a-dependent Zcchc11 (Z11) TUTase assay; read-out: Potency Lin28a-dep Z11 IC50.
T1 construct: made in house; host or cells: HEK293 cells (Zcchc11); E. coli Rosetta II (LIN28A)
T1 sequence (Q5TAX3 212-1420): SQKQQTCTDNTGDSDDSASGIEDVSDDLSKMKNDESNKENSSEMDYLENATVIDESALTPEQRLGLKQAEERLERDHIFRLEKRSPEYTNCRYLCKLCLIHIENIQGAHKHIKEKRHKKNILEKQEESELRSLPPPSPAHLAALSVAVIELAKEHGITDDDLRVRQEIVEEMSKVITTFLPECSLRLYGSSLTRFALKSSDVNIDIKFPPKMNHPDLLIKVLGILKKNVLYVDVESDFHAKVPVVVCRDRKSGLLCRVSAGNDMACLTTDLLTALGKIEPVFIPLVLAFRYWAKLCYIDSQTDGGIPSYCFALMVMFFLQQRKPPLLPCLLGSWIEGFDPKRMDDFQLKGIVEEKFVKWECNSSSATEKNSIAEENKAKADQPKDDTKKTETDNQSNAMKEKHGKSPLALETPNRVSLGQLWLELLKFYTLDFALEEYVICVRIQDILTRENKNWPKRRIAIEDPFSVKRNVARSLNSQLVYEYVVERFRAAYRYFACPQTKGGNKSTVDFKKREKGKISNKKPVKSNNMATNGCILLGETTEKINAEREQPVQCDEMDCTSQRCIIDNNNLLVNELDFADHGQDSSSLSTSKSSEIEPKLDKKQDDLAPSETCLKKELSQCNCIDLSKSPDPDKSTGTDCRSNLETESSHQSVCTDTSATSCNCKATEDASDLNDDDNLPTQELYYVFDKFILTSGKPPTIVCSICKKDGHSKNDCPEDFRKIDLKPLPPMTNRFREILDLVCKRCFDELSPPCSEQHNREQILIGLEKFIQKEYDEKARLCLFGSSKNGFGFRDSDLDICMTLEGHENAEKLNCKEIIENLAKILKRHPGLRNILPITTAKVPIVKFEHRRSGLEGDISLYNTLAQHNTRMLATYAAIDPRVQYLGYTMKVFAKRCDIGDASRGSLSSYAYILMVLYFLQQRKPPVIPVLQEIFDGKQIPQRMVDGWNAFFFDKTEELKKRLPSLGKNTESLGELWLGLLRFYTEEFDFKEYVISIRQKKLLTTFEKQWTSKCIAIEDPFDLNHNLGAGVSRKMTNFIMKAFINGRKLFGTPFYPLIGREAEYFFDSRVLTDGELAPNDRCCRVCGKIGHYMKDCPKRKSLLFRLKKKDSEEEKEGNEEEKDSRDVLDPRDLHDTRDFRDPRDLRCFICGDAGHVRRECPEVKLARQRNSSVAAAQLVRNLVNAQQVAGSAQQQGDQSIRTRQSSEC
Type: biochemical
Procedure, shortened: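 Polyuridylation measured as fluorescein loss when a rhodamine-labelled A20 probe anneals to U-tails added to fluorescein pre-let-7 (2 nM). Reaction: truncated Zcchc11 0.2 nM, E. coli-made LIN28A 10 nM, UTP 5 uM, HEPES pH 7.3, room temperature. Initial rates fitted to four-parameter IC50.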

IC50 [nM] | Compound
1000 to 10000 | CN(C)C1CN(c2ccc(-n3cc(C(=O)O)c(=O)c4cc(Cl)c(N5CCC[C@@H]5COC5CCOCC5)cc43)cn2)C1 [Example 595, (R)-6-chloro-1-(6-(3-(dimethylamino)azetidin-1-yl)pyridin-3-yl)-4-oxo-7-(2-(((tetrahydro-2H-pyran-4-yl)oxy)methyl)pyrrolidin-1-yl)-1,4-dihydroquinoline-3-carboxylic acid]
≤ 1000 | CN(C)C1CN(c2ccc(-n3cc(C(=O)O)c(=O)c4cc(Cl)c(N5CCC[C@@H]5CSc5ncccc5Cl)cc43)cn2)C1 [Example 596, (R)-6-chloro-7-(2-(((3-chloropyridin-2-yl)thio)methyl)pyrrolidin-1-yl)-1-(6-(3-(dimethylamino)azetidin-1-yl)pyridin-3-yl)-4-oxo-1,4-dihydroquinoline-3-carboxylic acid]
≤ 1000 | CN(C)C1CN(c2ccc(-n3cc(C(=O)O)c(=O)c4cc(Cl)c(N5Cc6cccnc6[C@@H]5COc5ncccc5Cl)cc43)cn2)C1 [Example 597, (R)-6-chloro-7-(7-(((3-chloropyridin-2-yl)oxy)methyl)-5,7-dihydro-6H-pyrrolo[3,4-b]pyridin-6-yl)-1-(6-(3-(dimethylamino)azetidin-1-yl)pyridin-3-yl)-4-oxo-1,4-dihydroquinoline-3-carboxylic acid]
≤ 1000 | CN(C)C1CN(c2ccc(-n3cc(C(=O)O)c(=O)c4cc(Cl)c(N5C[C@@H](O)C[C@@H]5COc5ncccc5Cl)cc43)cn2)C1 [Example 598, 6-chloro-7-((2R,4S)-2-(((3-chloropyridin-2-yl)oxy)methyl)-4-hydroxypyrrolidin-1-yl)-1-(6-(3-(dimethylamino)azetidin-1-yl)pyridin-3-yl)-4-oxo-1,4-dihydroquinoline-3-carboxylic acid]
≤ 1000 | CN(C)C1CN(c2ccc(-n3cc(C(=O)O)c(=O)c4cc(Cl)c(N5CC(c6cccnc6)C[C@@H]5COc5ncccc5Cl)cc43)cn2)C1 (stereo partly drawn) [Example 599, 6-chloro-7-((2R)-2-(((3-chloropyridin-2-yl)oxy)methyl)-4-(pyridin-3-yl)pyrrolidin-1-yl)-1-(6-(3-(dimethylamino)azetidin-1-yl)pyridin-3-yl)-4-oxo-1,4-dihydroquinoline-3-carboxylic acid]
≤ 1000 | CN(C)C1CN(c2ccc(-n3cc(C(=O)O)c(=O)c4cc(F)c(N5CCC[C@@H]5COc5cc(O)ccn5)c(F)c43)cn2)C1 [Example 600, (R)-1-(6-(3-(dimethylamino)azetidin-1-yl)pyridin-3-yl)-6,8-difluoro-7-(2-(((4-hydroxypyridin-2-yl)oxy)methyl)pyrrolidin-1-yl)-4-oxo-1,4-dihydroquinoline-3-carboxylic acid]
≤ 1000 | CN(CCN1CCC1)c1ccc(-n2cc(C(=O)O)c(=O)c3cc(Cl)c(N4CCC[C@@H]4COc4ncccc4Cl)cc32)cn1 [Example 601, (R)-1-(6-((2-(azetidin-1-yl)ethyl)(methyl)amino)pyridin-3-yl)-6-chloro-7-(2-(((3-chloropyridin-2-yl)oxy)methyl)pyrrolidin-1-yl)-4-oxo-1,4-dihydroquinoline-3-carboxylic acid]
≤ 1000 | CN(C)C1CN(c2ccc(-n3cc(C(=O)O)c(=O)c4cc(Cl)c(N5C[C@H](O)C[C@@H]5COc5ncccc5Cl)cc43)cn2)C1 [Example 602, 6-chloro-7-((2R,4R)-2-(((3-chloroypridin-2-yl)oxy)methyl)-4-hydroxypyrrolidin-1-yl)-1-(6-(3-(dimethylamino)azetidin-1-yl)pyridin-3-yl)-4-oxo-1,4-dihydroquinoline-3-carboxylic acid]
≤ 1000 | COc1ccc(C2C[C@H](COc3ncccc3Cl)N(c3cc4c(cc3Cl)c(=O)c(C(=O)O)cn4-c3ccc(N4CC(N(C)C)C4)nc3)C2)cn1 (stereo partly drawn) [Example 603, 6-chloro-7-((2R)-2-(((3-chloropyridin-2-yl)oxy)methyl)-4-(6-methoxypyridin-3-yl)pyrrolidin-1-yl)-1-(6-(3-(dimethylamino)azetidin-1-yl)pyridin-3-yl)-4-oxo-1,4-dihydroquinoline-3-carboxylic acid]
≤ 1000 | O=C(O)c1cn(-c2cc3nc[nH]c3cn2)c2cc(N3CCC[C@@H]3COc3ncccc3Cl)c(Cl)cc2c1=O [Example 604, (R)-6-chloro-7-(2-(((3-chloropyridin-2-yl)oxy)methyl)pyrrolidin-1-yl)-1-(3H-imidazo[4,5-c]pyridin-6-yl)-4-oxo-1,4-dihydroquinoline-3-carboxylic acid]
≤ 1000 | O=C(O)c1cn(-c2ccc(C3COC3)nc2)c2cc(N3CCC[C@@H]3COc3ncccc3Cl)c(Cl)cc2c1=O [Example 605, (R)-6-chloro-7-(2-(((3-chloropyridin-2-yl)oxy)methyl)pyrrolidin-1-yl)-1-(6-(oxetan-3-yl)pyridin-3-yl)-4-oxo-1,4-dihydroquinoline-3-carboxylic acid]
≤ 1000 | O=C(O)c1cn(-c2ccc(C3CNC3)nc2)c2cc(N3CCC[C@@H]3COc3ncccc3Cl)c(Cl)cc2c1=O [Example 606, (R)-1-(6-(azetidin-3-yl)pyridin-3-yl)-6-chloro-7-(2-(((3-chloropyridin-2-yl)oxy)methyl)pyrrolidin-1-yl)-4-oxo-1,4-dihydroquinoline-3-carboxylic acid]
≤ 1000 | O=C(O)c1cn(-c2ccc(C3(O)COC3)nc2)c2cc(N3CCC[C@@H]3COc3ncccc3Cl)c(Cl)cc2c1=O [Example 607, (R)-6-chloro-7-(2-(((3-chloropyridin-2-yl)oxy)methyl)pyrrolidin-1-yl)-1-(6-(3-hydroxy-oxetan-3-yl)pyridin-3-yl)-4-oxo-1,4-dihydroquinoline-3-carboxylic acid]
≤ 1000 | CN(C)C1CN(c2ccc(-n3cc(C(=O)O)c(=O)c4cc(Cl)c(N5CC(c6ccc(O)nc6)C[C@@H]5COc5ncccc5Cl)cc43)cn2)C1 (stereo partly drawn) [Example 608]
≤ 1000 | CN(C)C1CN(c2ccc(-n3cc(C(=O)O)c(=O)c4cc(Cl)c(N5CCC[C@@]5(C)COc5ncccc5Cl)cc43)cn2)C1 [Example 609, (S)-6-chloro-7-(2-(((3-chloropyridin-2-yl)oxy)methyl)-2-methylpyrrolidin-1-yl)-1-(6-(3-(dimethylamino)azetidin-1-yl)pyridin-3-yl)-4-oxo-1,4-dihydroquinoline-3-carboxylic acid]
1000 to 10000 | CN(C)C1CN(c2ccc(-n3cc(C(=O)O)c(=O)c4cc(Cl)c(N5CCC[C@@H]5C[S+]([O-])c5ncccc5Cl)cc43)cn2)C1 (stereo partly drawn) [Example 610, 6-chloro-7-((2R)-2-(((3-chloropyridin-2-yl)sulfinyl)methyl)pyrrolidin-1-yl)-1-(6-(3-(dimethylamino)azetidin-1-yl)pyridin-3-yl)-4-oxo-1,4-dihydroquinoline-3-carboxylic acid]
≤ 1000 | O=C(O)c1cn(-c2ccc(C3(O)CNC3)nc2)c2cc(N3CCC[C@@H]3COc3ncccc3Cl)c(Cl)cc2c1=O [Example 611, (R)-6-chloro-7-(2-(((3-chloropyridin-2-yl)oxy)methyl)pyrrolidin-1-yl)-1-(6-(3-hydroxyazetidin-3-yl)pyridin-3-yl)-4-oxo-1,4-dihydroquinoline-3-carboxylic acid]
≤ 1000 | CN(C)C1CN(c2ccc(-n3cc(C(=O)O)c(=O)c4cc(F)c(N5CCC[C@@H]5COc5cc(OCc6ccccc6)ccn5)c(F)c43)cn2)C1 [Example 612, (R)-7-(2-(((4-(benzyloxy)pyridin-2-yl)oxy)methyl)pyrrolidin-1-yl)-1-(6-(3-(dimethylamino)azetidin-1-yl)pyridin-3-yl)-6,8 difluoro-4-oxo-1,4-dihydroquinoline-3-carboxylic acid]
